Data taken from patent US10294202B2, “Pyrrolidinones as herbicides” (FMC Corporation, priority 2013, dated 2019).

Key:
wheat = assay: Test A pre-/postemergence herbicide test; format: in vivo, Triticum aestivum; conditions: Postemergence
In short: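 Greenhouse pot test with pre- and postemergence application of surfactant-containing solvent formulations. Postemergence plants were 2–10 cm, one- to two-leaf stage. Response scored visually after ~10 days, 0 (no effect) to 100 (complete control).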

crabgrass, large = assay: Test C pre-/postemergence herbicide test; format: in vivo, Digitaria sanguinalis
In short: (§1)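 Greenhouse pots; formulation = non-phytotoxic solvent mix + surfactant. PRE onto seeds in loam:sand; POST at 1–4 leaves (2–18 cm) in peat moss/vermiculite medium. Read-out: visual % control vs untreated, day 13–15.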

kochia = assay: Test C pre-/postemergence herbicide test; format: in vivo, Kochia scoparia; conditions: Postemergence
In short: as §1

chickweed = assay: Test C postemergence herbicide test; format: in vivo, Stellaria media
In short: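 Greenhouse pot plants at 2 to 18 cm height (1- to 4-leaf stage) received a postemergence application of formulated test chemical. Visual ratings against untreated controls were made after 13 to 15 days, on a 0 (no effect) to 100 (complete control) scale.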

barnyardgrass = assay: Test C flooded paddy test; format: in vivo, Echinochloa crus-galli; conditions: Flood
In short: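 Plants grown to the 2-leaf stage; pots flooded to 3 cm above soil and compound applied directly into the paddy water, depth kept throughout. Greenhouse 13 to 15 days, then visual rating vs untreated controls on 0–100 scale (0 no effect, 100 complete control); dash means no result.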

[1] = 125 g ai/ha, 0 to 100 scale, 0 is no effect, 100 is complete control
[2] = Postemergence, 31 g ai/ha, scale 0 to 100 (0 no effect, 100 complete control)
[3] = Postemergence, 62 g ai/ha, scale 0 (no effect) to 100 (complete control)
[4] = Postemergence, 125 g ai/ha, scale 0 to 100 (0 no effect, 100 complete control)
[5] = Postemergence, 250 g ai/ha, scale 0 to 100 (0 no effect, 100 complete control)
[6] = Preemergence, 31 g ai/ha, scale 0 to 100, 0 is no effect and 100 is complete control
[7] = Preemergence, 62 g ai/ha, scale 0 to 100 (0 no effect, 100 complete control)
[8] = Preemergence, 125 g ai/ha, scale 0 to 100 (0 no effect, 100 complete control)
[9] = 31 g ai/ha, scale 0 to 100 (0 no effect, 100 complete control)
[10] = 62 g ai/ha, scale 0 (no effect) to 100 (complete control)
[11] = 125 g ai/ha, scale 0 to 100 (0 no effect, 100 complete control)
[12] = 250 g ai/ha, scale 0 to 100 (0 no effect, 100 complete control)
[13] = 125 g ai/ha, scale of 0 to 100 where 0 is no effect and 100 is complete control, 13 to 15 days
[14] = 250 g ai/ha, scale of 0 to 100 where 0 is no effect and 100 is complete control, 13 to 15 days
[15] = 125 g ai/ha, visual rating on 0 to 100 scale (0 no effect, 100 complete control), approx. 10 days
[16] = 500 g ai/ha, 0 to 100 scale (0 no effect, 100 complete control)
[17] = 62 g ai/ha, scale of 0 to 100 where 0 is no effect and 100 is complete control, 13 to 15 days
[18] = 31 g ai/ha, scale of 0 to 100 where 0 is no effect and 100 is complete control, 13 to 15 days
[19] = 8 g ai/ha, scale 0 to 100 (0 no effect, 100 complete control)
[20] = 16 g ai/ha, scale 0 to 100 (0 no effect, 100 complete control)

| SMILES | Plant response rating, Wheat (wheat; [1]) | Wheat plant response rating (0 to 100 scale, 0 is no effect, 100 is complete control) (wheat; 500 g ai/ha) | Plant response rating, Crabgrass, Large (crabgrass, large; [2]) | Plant response rating, Crabgrass, Large (crabgrass, large; [3]) | Plant response rating, Crabgrass, Large (crabgrass, large; [4]) | Plant response rating, Crabgrass, Large (crabgrass, large; [5]) | Crabgrass, Large plant response rating (crabgrass, large; [6]) | Crabgrass, Large plant response rating (crabgrass, large; [7]) | Plant response rating, Crabgrass, Large (crabgrass, large; [8]) | Plant response rating (scale of 0 to 100), Crabgrass, Large (crabgrass, large; Preemergence, 250 g ai/ha) | Plant response rating, Kochia (kochia; [9]) | Plant response rating, Kochia (kochia; [10]) | Plant response rating, Kochia (kochia; [11]) | Plant response rating, Kochia (kochia; [12]) | Plant response rating, Chickweed (chickweed; [9]) | Plant response rating, Chickweed (chickweed; [10]) | Plant response rating, Chickweed (chickweed; [11]) | Plant response rating, Chickweed (chickweed; [12]) | Plant response rating, Barnyardgrass (barnyardgrass; [13]) | Plant response rating, Barnyardgrass (barnyardgrass; [14]) | other results |
| --- | --- | --- | --- | --- | --- | --- | --- | --- | --- | --- | --- | --- | --- | --- | --- | --- | --- | --- | --- | --- | --- |
| O=C1NCC(c2cccc(C(F)(F)F)c2)C1C(=O)Nc1ccc(F)cc1F (racemic) [Compound 207] | 0 | 60 | 10 | 15 | 40 | 65 | 90 | 90 | 95 | 95 | 0 | 0 | 0 | 30 | 30 | 50 | 60 | 90 | 40 | 60 | Plant response rating, Barnyardgrass (barnyardgrass; 500 g ai/ha, scale 0 to 100): 70; Plant response rating, Barnyardgrass (barnyardgrass; 1000 g ai/ha, scale 0 to 100): 75 |
| O=C1NCC(c2cccc(Cl)c2)C1C(=O)Nc1cccc(F)c1F (racemic) [Compound 275] |  |  | 15 | 40 | 65 | 85 | 90 | 95 | 100 | 100 | 70 | 85 | 85 | 85 | 50 | 60 | 85 | 85 | 45 | 60 | Plant response rating, Wheat (wheat; [15]): 40; Plant response rating, Wheat (wheat; [16]): 70; Plant response rating, Barnyardgrass (barnyardgrass; [17]): 35; Plant response rating, Barnyardgrass (barnyardgrass; 500 g ai/ha, scale 0 to 100): 70 |
| O=C1NCC(c2cccc(OC(F)F)c2)C1C(=O)Nc1ccccc1F (centres unmarked) [Compound 223] | 40 | 50 | 0 | 10 | 55 | 80 | 85 | 90 | 95 | 100 | 0 | 5 | 30 | 60 | 40 | 45 | 50 | 80 | 0 | 0 | Plant response rating, Barnyardgrass (barnyardgrass; [18]): 0; Plant response rating, Barnyardgrass (barnyardgrass; [17]): 0 |
| O=C1NCC(c2ccc(C(F)(F)F)cc2)C1C(=O)Nc1ccc(F)c(F)c1F (centres unmarked) [Compound 232] | 30 | 50 | 25 | 35 | 60 | 75 | 85 | 90 | 90 | 90 | 60 | 70 | 70 | 75 | 70 | 85 | 85 | 85 | 40 | 60 | Plant response rating, Barnyardgrass (barnyardgrass; [18]): 0; Plant response rating, Barnyardgrass (barnyardgrass; [17]): 30 |
| CN1CC(c2ccc(F)cc2)C(C(=O)Nc2cccc(F)c2F)C1=O (centres unmarked) [Compound 271] |  |  | 5 | 5 |  |  | 95 | 100 |  |  | 0 | 10 |  |  | 5 | 50 |  |  | 40 | 45 | Plant response rating, Wheat (wheat; [15]): 0; Plant response rating, Wheat (wheat; [16]): 80; Plant response rating, Crabgrass, Large (crabgrass, large; Postemergence, 8 g ai/ha, scale 0 to 100 (0 no effect, 100 complete control)): 0; Plant response rating, Crabgrass, Large (crabgrass, large; Postemergence, 16 g ai/ha, scale 0 to 100 (0 no effect, 100 complete control)): 0; Plant response rating, Crabgrass, Large (crabgrass, large; Preemergence, 8 g ai/ha, scale 0 to 100): 50; Plant response rating, Crabgrass, Large (crabgrass, large; Preemergence, 16 g ai/ha, scale 0 to 100): 90; Plant response rating, Kochia (kochia; [19]): 0; Plant response rating, Kochia (kochia; [20]): 0; Plant response rating, Chickweed (chickweed; [19]): 0; Plant response rating, Chickweed (chickweed; [20]): 5; Plant response rating, Barnyardgrass (barnyardgrass; 500 g ai/ha, scale 0 to 100): 75; Plant response rating, Barnyardgrass (barnyardgrass; 1000 g ai/ha, scale 0 to 100): 80 |
